In paper PMC9181938, “Fluorinated Analogues of Lepidilines A and C: Synthesis and Screening of Their Anticancer and Antiviral Activity” (Molecules, 2022) one finds IC50 data, which are given here for 1 compound.

Common to all, as to assay: Antiviral activity assay (0.1–1000 µM), IC50
Common to all, as to assay type: cell-based

The subject of assay [1] is Encephalomyocarditis virus (EMCV). Conditions: Cardiovirus A, Table S4, range 0.1-1000 µM, read-out: IC50 (M) EMCV. Put shortly:
(§1)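 Confluent cell monolayers were infected (AdV5 and EMCV MOI 0.005, HPIV-3 MOI 0.01, 1-h adsorption; HCMV 20 PFU/well, 2-h adsorption), then incubated at 37 °C with compounds (0.1–1000 µM) in 2% FBS MEM until CPE appeared. Infection was read by MTT or, for HCMV, plaque counting. IC50 was the concentration halving plaques versus untreated infected controls.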

Assay [2] deals with Human adenovirus 5 (AdV5). Particulars: Human mastadenovirus C; Table S4, range 0.1-1000 µM, AdV5; read-out: IC50 (M) AdV5. Put shortly:
as §1

For assay [3], the system named is Human parainfluenza virus type 3 (HPIV-3). Particulars: Human respirovirus 3, Table S4, range 0.1-1000 µM, HPIV-3; read-out: IC50 (M) HPIV-3. A digest of the protocol:
as §1

As a reminder, the IC50 is the midpoint of a concentration-inhibition curve. Turning to `Cc1c(C)n(Cc2ccccc2)c(=S)n1Cc1ccccc1` [Compound 10a], the IC50 was above 4.6e-05 M in assay [1], above 1.69e-05 M in assay [2] and above 1.62e-05 M in assay [3].
